Entries after “also recorded” stand apart in the source; their conditions may differ.
Biological target: T1, ABCB1 (Homo sapiens, UniProt P08183)
T1 construct: ABCB1-overexpressing SW620V cells; endogenous in cells; host or cells: SW620V (vincristine-resistant variant of SW620, developed in the authors' laboratory by drug selection)
Assay: Calcein accumulation transport assay in SW620V cells
Assay type: cell-based
Details: 10 µM compound; for increase of intracellular retention of calcein: ABCB1, SW620V cells; for inhibition of ABCB1 activity (calcein accumulation assay): SW620V cells, n = 3
Source text: To confirm the hypothesis of direct interaction between putative ABC protein inhibitors and transporter molecules, we conducted a series of experiments based on fluorescent probe transport as described previously. None of the compounds affected 2′,7′-bis(2-carboxyethyl)-5-(and-6)-carboxyfluorescein (BCECF) efflux out of SW620M cells, indicating the lack of interaction between the putative inhibitors and ABCC1 (Figure A). […] As anticipated, none of the newly synthesized compounds affected dye accumulation in drug-sensitive SW620 cells (data not shown).
SW620 cells and their drug-resistant variants overexpressing ABCB1 (SW620V), ABCC1 (SW620M), or ABCG2 (SW620Mito) were trypsinized and suspended in a complete cell - culture medium prewarmed to 37°C at a final density of approximately 1 × 10^6/mL. The tested compounds were added from DMSO stock solutions to a final concentration of 10 µM.
Respective samples were supplemented with a specific fluorescent marker (100 nM calcein AM for ABCB1, 100 nM BCECF AM for ABCC1, and 1 µM pheophorbide A for A BCG2). For the control, given protein-specific inhibitors (10 µM verapamil for ABCB1, 25 µM MK-571 for ABCC1, and 10 µM Ko143 for ABCG2) were added to parallel, tested compound-free, samples. For ABCB1 and ABCG2 assays (dye accumulation assays), intracellular fluorescence was measured by flow cytometry (FACSymphony A1, Becton, Dickinson and Company, New Jersey, USA) immediately after dye addition (time 0) and every 3–5 min up to approximately 30 min using a flow cytometer set at 488 nm excitation and 530/30 nm emission for the calcein/ABCB1 assay and 400 nm excitation and 655/8 nm emission for the pheophorbide A/ABCG2 assay. For the BCECF/ABCC1 assay (dye exclusion assay), the sample was preincubated at 37°C for 10 min, centrifuged (400 × g, 10 min, RT), and then resuspended in fresh medium. The intracellular BCECF concentration was then immediately measured at 488 nm excitation and 530/30 nm emission (time 0). Further measurements were performed at 15 - min intervals. All samples were incubated at 37°C between measurements. The accumulation/exclusion curves were plotted, and the slope of the initial accumulation rate or dye retention half time was evaluated using the GraphPad Prism software version 10 (GraphPad Software, Boston, Massachusetts USA). The difference between the a ccumulation rate/half time value for dye only and the tested compound/inhibitor samples was expressed as a given protein activity measure.

T1 sequence (P08183 whole entry): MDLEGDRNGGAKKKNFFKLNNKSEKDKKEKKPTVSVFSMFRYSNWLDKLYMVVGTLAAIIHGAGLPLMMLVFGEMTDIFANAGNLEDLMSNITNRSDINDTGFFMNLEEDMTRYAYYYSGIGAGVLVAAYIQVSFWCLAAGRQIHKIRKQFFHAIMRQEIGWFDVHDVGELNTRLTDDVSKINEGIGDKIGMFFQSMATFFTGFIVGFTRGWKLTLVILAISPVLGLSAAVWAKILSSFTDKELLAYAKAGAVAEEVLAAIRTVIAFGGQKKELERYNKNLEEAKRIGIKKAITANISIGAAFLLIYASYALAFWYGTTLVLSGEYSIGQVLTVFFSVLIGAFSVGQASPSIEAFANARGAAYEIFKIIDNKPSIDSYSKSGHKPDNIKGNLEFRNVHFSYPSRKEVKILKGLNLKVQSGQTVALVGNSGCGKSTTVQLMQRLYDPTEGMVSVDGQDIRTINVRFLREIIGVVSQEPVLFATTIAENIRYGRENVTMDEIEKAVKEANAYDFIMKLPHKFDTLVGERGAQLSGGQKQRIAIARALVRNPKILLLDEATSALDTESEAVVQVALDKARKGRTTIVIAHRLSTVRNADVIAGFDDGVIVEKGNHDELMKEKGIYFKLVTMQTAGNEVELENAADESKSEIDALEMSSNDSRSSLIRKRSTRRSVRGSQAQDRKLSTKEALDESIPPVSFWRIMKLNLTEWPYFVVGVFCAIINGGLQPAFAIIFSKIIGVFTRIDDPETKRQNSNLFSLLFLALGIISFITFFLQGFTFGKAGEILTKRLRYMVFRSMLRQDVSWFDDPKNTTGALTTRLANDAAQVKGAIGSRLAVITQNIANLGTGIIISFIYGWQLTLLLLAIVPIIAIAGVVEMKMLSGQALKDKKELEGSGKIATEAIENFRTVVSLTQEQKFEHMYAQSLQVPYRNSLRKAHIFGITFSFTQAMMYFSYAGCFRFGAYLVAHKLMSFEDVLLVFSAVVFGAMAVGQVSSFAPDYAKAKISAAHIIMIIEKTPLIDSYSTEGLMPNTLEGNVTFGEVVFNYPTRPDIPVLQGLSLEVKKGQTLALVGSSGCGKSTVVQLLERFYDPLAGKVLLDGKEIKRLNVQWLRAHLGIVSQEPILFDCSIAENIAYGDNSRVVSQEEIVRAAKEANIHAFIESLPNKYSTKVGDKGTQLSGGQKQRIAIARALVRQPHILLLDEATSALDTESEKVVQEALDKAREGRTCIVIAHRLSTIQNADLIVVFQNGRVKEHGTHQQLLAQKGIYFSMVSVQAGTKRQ

Row | SMILES | increase of intracellular retention of calcein | inhibition of ABCB1 activity (calcein accumulation assay)
1 | O=C1N/C(=C\c2ccccc2-[c-]2cccc2)C(=O)N2CCC[C@@H]12.[Fe+2].c1cc[cH-]c1 [(S,Z)-4b] | up to 3.4 fold | efficiently inhibited ABCB1 activity; also recorded: inhibit calcein efflux
2 | O=C1N/C(=C\c2ccc(-[c-]3cccc3)cc2)C(=O)N2CCC[C@@H]12.[Fe+2].c1cc[cH-]c1 [(S,Z)-4d] | up to 3.4 fold | efficiently inhibited ABCB1 activity; also recorded: inhibit calcein efflux

Reference: paper PMC12257394, “Design, Synthesis, and Biological Evaluation of Ferrocenyl–Cyclo-(Gly‑L‑Pro) Hybrids Sensitizing Multidrug-Resistant Cancer Cells to Anticancer Agents” (ACS Medicinal Chemistry Letters, 2025)
